For the assay, the system named is isolated guinea pig gallbladder. Kind of assay: Functional activity in isolated guinea pig gallbladder preparation. In kind it is cell-based. Particulars: expressed as % CCK-induced maximal response; for activation at 1 µM / activation at 30 µM: Cavia porcellus; for activation at 1 µM: read-out: %Contraction (1 × 10^-6 M); for activation at 30 µM: 3 × 10^-5 M test compound, read-out: % Contraction (3 × 10^-5 M). As for the experimental part: 3. GUINEA PIG GALL BLADDER ASSAY
Gallbladders are removed from guinea pigs sacrificed by cervical dislocation. The isolated gallbladders are cleaned of adherent connective tissue and cut into two rings from each animal (2-4 mm in length). The rings are subsequently suspended in organ chambers containing a physiological salt solution (118.4 mM NaCl, 4.7 mM KCl, 1.2 mM MgSO4, 2.5 mM CaCl2, 1.2 mM KH2 […], 25 mM NaHCO3, 11.1 mM dextrose). The bathing solution is maintained at 37° C. and aerated with 95% O2 /5% CO2. Tissues are connected via gold chains and stainless steel mounting wires to isometric force displacement transducers (Grass, Model FT03 D). Responses are then recorded on a polygraph (Grass, Model 7E).
Rings are gradually stretched (over a 120 min. period) to a basal resting tension of 1 gm which is maintained throughout the experiment. During the basal tension adjustment period, the rings are exposed to acetylcholine (10^-6 M) four times to verify tissue contractility. The tissues are then exposed to a submaximal dose of sulfated CCK-8 (Sigma, 3×10^-9 M). After obtaining a stable response, the tissues are washed out 3 times rapidly and every 5 to 10 minutes for 1 hour to reestablish a stable baseline.
Compounds are dissolved in dimethylsulfoxide ([…]) followed by a concentration-response curve to sulfated CCK-8 (10^-10 to 10^-6 M) in the presence of the highest dose of the test compound. As a final test, ACH (10 mM) is added to induce maximal contraction. A minimum of three determinations of activity are made for each test compound.

The record followed here is US5859007A, “CCK or gastrin modulating benzo [b][1,4] diazepines derivatives” (Glaxo Wellcome Inc., priority 1994, dated 1999).

For `CC(C)N(C(=O)CN1C(=O)C(C)(Cc2noc(-c3ccccc3)n2)C(=O)N(c2ccccc2)c2ccccc21)c1ccccc1` (centres unmarked) [Example 10, N-Isopropyl-2-[3-methyl-2,4-dioxo-5-phenyl-3-(5-phenyl-[1,2,4]oxadiazol-3-ylmethyl)-2,3,4,5-tetrahydro-benzo[b][1,4]diazepin-1-yl]-N-phenyl acetamide], where the note is “1 × 10^-6 M test compound”, the activation at 1 µM stood at 7%.
Turning to `CC(=O)n1nc(CC2C(=O)N(CC(=O)N(c3ccc(F)cc3)C(C)C)c3ccccc3N(c3ccccc3)C2=O)c2ccc(F)cc21` (centres unmarked) [Example 64, 2-[3-(1-Acetyl-6-fluoro-1H-indazol-3-ylmethyl)-2,4-dioxo-5-phenyl-2,3,4,5,tetrahydro-benzo[b][1,4]diazepin-1-yl]-N-(4-fluoro-phenyl)-N-isopropyl-acetamide], the activation at 30 µM was determined as 98%. Besides, for the setting “1 × 10^-6 M test compound”, the activation at 1 µM was 67%.
In the same order, the values of `COc1ccc(N(C(=O)CN2C(=O)C(Cc3nccn3-c3ccccc3)C(=O)N(c3ccccc3)c3ccccc32)C(C)C)cc1` (centres unmarked) [Example 46, 2-(2,4-Dioxo-5-phenyl-3-(1-phenyl-imidazo-2-yl)methyl-2,3,4,5-tetrahydro-benzo[b][1,4]diazepin-1-yl)-N-isopropyl-N-(4-methoxy)-phenyl acetamide] are 6% and 6%.
Take `CCC1(CC(=O)Nc2ccccc2)C(=O)N(CC(=O)N(c2ccccc2)C(C)C)c2ccccc2N(c2ccccc2)C1=O` (centres unmarked) [Example 16, 2-(3-Ethyl-2,4-dioxo-5-phenyl-3-phenylcarbamoylmethyl-2,3,4,5-tetrahydro-benzo[b][1,4]diazepin-1-yl)-N-isopropyl-N-phenyl-acetamide]: the activation at 30 µM was 54%.
For `COc1ccc(N(C(=O)CN2C(=O)C(Cc3csc4ccccc34)C(=O)N(c3ccccc3)c3ccccc32)C(C)C)cc1` (centres unmarked) [Example 37, 2-(3-Benzo[b]thiophen-3-ylmethyl-2,4-dioxo-5-phenyl-2,3,4,5-tetrahydro-benzo[b][1,4]diazepin-1-yl)-N-isopropyl-N-(4-methoxy-phenyl) acetamide], the activation at 1 µM (1 × 10^-6 M test compound) came out at 46%.
Regarding `CC(C)N(C(=O)CN1C(=O)C(CC(=O)Nc2cccc(C(=O)O)c2)C(=O)N(c2ccccc2)c2ccccc21)c1ccccc1` (centres unmarked) [Example 2], the activation at 30 µM is 94%.
In the case of `CC(C)N(C(=O)CN1C(=O)C(Cc2n[nH]c3ccccc23)C(=O)N(c2ccccc2)c2ccccc21)c1ccc(C(F)(F)F)cc1` (centres unmarked) [Example 52, 2-[3-(1H-Indazol-3-ylmethyl)-2,4-dioxo-5-phenyl-2,3,4,5-tetrahydro-benzo[b][1,4]diazepin-1-yl]-N-isopropyl-N-(4-trifluoromethyl-phenyl)-acetamide], the activation at 30 µM came to 96%. Moreover, the activation at 1 µM (1 × 10^-6 M test compound) turned out to be 70%.
Consider `COc1ccc(N(C(=O)CN2C(=O)C(CC(=O)O)(CC(=O)Nc3ccccc3)C(=O)N(c3ccccc3)c3ccccc32)C(C)C)cc1` (centres unmarked) [Example 29, {1-[Isopropyl-(4-methoxy-phenyl)-carbamoylmethyl]-2,4-dioxo-5-phenyl-3-phenylcarbamoylmethyl-2,3,4,5-tetrahydro-1H-benzo[b][1,4]diazepin-3-yl}acetic acid], for which the activation at 30 µM was 85%. In addition, the activation at 1 µM (1 × 10^-6 M test compound) worked out at 65%.
On to `COc1ccc(N(C(=O)CN2C(=O)C(C)(Cc3c[nH]c4ccccc34)C(=O)N(c3ccccc3)c3ccccc32)C(C)C)cc1` (centres unmarked) [Example 23, 2-[3-(1H-indol-3-ylmethyl)-3-methyl-2,4-dioxo-5-phenyl-2,3,4,5-tetrahydro-benzo[b][1,4]diazepin-1-yl]-N-isopropyl-N-(4-methoxy-phenyl) acetamide], for which the activation at 30 µM came to 50%.
As to `COc1ccc(N(C(=O)CN2C(=O)C(C)(Cc3csc4ccccc34)C(=O)N(c3ccccc3)c3ccccc32)C(C)C)cc1` (centres unmarked) [Example 40, 2-(3-Benzo[b]thiophen-3-ylmethyl-3-methyl-2,4-dioxo-5-phenyl-2,3,4,5-tetrahydro-benzo[b][1,4]diazepin-1-yl)-N-isopropyl-N-(4-methoxy-phenyl) acetamide], the activation at 1 µM (1 × 10^-6 M test compound) was 10%.
Take `CC(C)N(C(=O)CN1C(=O)C(C)(CC(=O)c2ccccc2)C(=O)N(c2ccccc2)c2ccccc21)c1ccccc1` (centres unmarked) [Example 7, N-Isopropyl-2-[3-methyl-2,4-dioxo-3-(2-phenyl-2-oxoethyl)-5-phenyl-2,3,4,5-tetrahydro-benzo[b][1,4]diazepin-1-yl]-N-phenyl acetamide]: the “%Contraction (1 × 10^-6 M)” value (1 × 10^-6 M test compound) came out at 15%.
On to `COc1ccc(N(C(=O)CN2C(=O)C(Cn3cnc4ccccc43)C(=O)N(c3ccccc3)c3ccccc32)C(C)C)cc1` (centres unmarked) [Example 56, 2-(3-Benzoimidazol-1-ylmethyl-2,4-dioxo-5-phenyl-2,3,4,5-tetrahydro-benzo[b][1,4]diazepin-1-yl]-N-isopropyl-N-(4-methoxy-phenyl)-acetamide], for which the activation at 30 µM turned out to be 98%. Also, the activation at 1 µM (1 × 10^-6 M test compound) was found to be 90%.
In the same order, the values of `CC(C)N(C(=O)CN1C(=O)C(Cc2n[nH]c3cc(F)ccc23)C(=O)N(c2ccccc2)c2ccccc21)c1ccc(OC(F)(F)F)cc1` (centres unmarked) [Example 70, 2-[3-(6-Fluoro-1H-indazol-3-ylmethyl)-2,4-dioxo-5-phenyl-2,3,4,5-tetrahydro-benzo[b][1,4]diazepin-1-yl]-N-isopropyl-N-(4-trifluoromethoxy-phenyl)-acetamide] are 73% and 66%.
For `COc1ccc(N(C(=O)CN2C(=O)C(Cc3cc(C)nn3Cc3ccccc3)C(=O)N(c3ccccc3)c3ccccc32)C(C)C)cc1` (centres unmarked) [Example 54, 2-[3-(2-Benzyl-5-methyl-2H-pyrazol-3ylmethyl)-2,4-dioxo-5-phenyl-2,3,4,5-tetrahydro-benzo[b][1,4]diazepin-1-yl]-N-isopropyl-N-(4-methoxy-phenyl)-acetamide] the same measures were 43% and 63%.
For `COc1ccc(N(C(=O)CN2C(=O)C(Cc3n[nH]c4ccccc34)C(=O)N(c3ccccc3)c3ccccc32)C2CCCC2)cc1` (centres unmarked) [Example 62, N-Cyclopentyl-2-[3-(1H-indazol-3-ylmethyl)-2,4-dioxo-5-phenyl-2,3,4,5,tetrahydro-benzo[b][1,4]diazepin-1-yl]-N-(4-methoxy-phenyl)-acetamide] the same measures were 86% and 96%.
As for `COc1ccc(N(C(=O)CN2C(=O)C(Cc3noc4ncccc34)C(=O)N(c3ccccc3)c3ccccc32)C(C)C)cc1` (centres unmarked) [Example 48, N-Isopropyl-2-(3-isoxazolo[5,4-b]pyridin-3-ylmethyl-2,4-dioxo-5-phenyl-2,3,4,5-tetrahydro-benzo[b][1,4]diazepin-1-yl)-N-(4-methoxy-phenyl) acetamide], the activation at 30 µM was found to be 75%.
Regarding `COc1ccc(N(C(=O)CN2C(=O)C(Cc3n[nH]c4ccccc34)C(=O)N(c3ccsc3)c3ccccc32)C(C)C)cc1` (centres unmarked) [Example 58, 2-[3-(1H-Indazol-3-ylmethyl)-2,4-dioxo-5-thiophen-3-yl-2,3,4,5-tetrahydro-benzo[b][1,4]diazepin-1-yl]-N-isopropyl-N-(4-methoxy-phenyl)-acetamide], the activation at 30 µM was determined as 95%. Further, the activation at 1 µM (1 × 10^-6 M test compound) is 80%.
In the same order, the values of `COc1ccc(N(C(=O)CN2C(=O)C(COCc3ccccc3)C(=O)N(c3ccccc3)c3ccccc32)C(C)C)cc1` (centres unmarked) [Example 82, 2-[3-(Benzyloxymethyl)-2,4-dioxo-5-phenyl-2,3,4,5-tetrahydro-benzo[b][1,4]diazepin-1-yl]-N-isopropyl-N-(4-methoxy-phenyl)-acetamide] are 89% and 69%.
For the compound `O=C1C(Cc2n[nH]c3ccccc23)C(=O)N(c2ccccc2)c2ccccc2N1CC(=O)N(c1ccccc1)C1CC1` (centres unmarked) [Example 61, N-Cyclopropyl-2-[3-(1H-indazol-3-ylmethyl)-2,4-dioxo-5-phenyl-2,3,4,5,tetrahydro-benzo[b][1,4]diazepin-1-yl]-N-phenyl-acetamide], the activation at 30 µM stood at 77%. For the same compound, under “1 × 10^-6 M test compound”, the activation at 1 µM turned out to be 63%.
For `COc1ccc(N(C(=O)CN2C(=O)C(Cc3cc4ccccc4[nH]3)(OC)C(=O)N(c3ccccc3)c3ccccc32)C(C)C)cc1` (centres unmarked) [Example 20, 2-[3-(1H-indol-2-ylmethyl)-3-methoxy-2,4-dioxo-5-phenyl-2,3,4,5-tetrahydro-benzo[b][1,4]diazepin-1-yl]-N-isopropyl-N-(4-methoxyphenyl) acetamide], the activation at 30 µM came out at 66%.
Take `COc1ccc(N(C(=O)CN2C(=O)C(CN(C)C(=O)c3ccccc3)C(=O)N(c3ccccc3)c3ccccc32)C(C)C)cc1` (centres unmarked) [Example 28, N-{1-[Isopropyl-(4-methoxy-phenyl)-carbamoylmethyl]-2,4-dioxo-5 phenyl-2,3,4,5-tetrahydro-1H-benzo[b][1,4]diazepin-3-ylmethyl}-N-methyl benzamide]: the activation at 1 µM (1 × 10^-6 M test compound) was 3%.
